{"source": "patent US6420367B1", "about": "“Pyrimidine derivatives exhibiting antitumor activity” (Shionogo & Co., Ltd., priority 1998, dated 2002)", "key": {"human colon cancer HT29": {"system": "human colon cancer HT29", "assay": "In vitro cell growth inhibition test, MTT assay", "format": "cell-based", "conditions": "MTT assay 4 days after compound addition", "procedure,_shortened": "(§1)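 Cells from several human cancer lines, PANC-1 among them, were tested in vitro and viable growth was scored with the MTT assay.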"}, "[1]": {"system": "human squamous lung cancer Ma44", "assay": "In vitro cell growth inhibition test, MTT assay", "format": "cell-based", "conditions": "MTT assay 4 days after compound addition", "procedure,_shortened": "as §1"}, "[2]": {"system": "human pancreas cancer PANC-1", "assay": "In vitro cell growth inhibition test, MTT assay", "format": "cell-based", "conditions": "MTT assay 4 days after compound addition", "procedure,_shortened": "as §1"}, "[3]": {"system": "human squamous lung cancer RERF-RC-AI", "assay": "In vitro cell growth inhibition test, MTT assay", "format": "cell-based", "conditions": "MTT assay 4 days after compound addition", "procedure,_shortened": "as §1"}, "[4]": {"system": "human lung adenocarcinoma A549", "assay": "In vitro cell growth inhibition test, MTT assay", "format": "cell-based", "conditions": "MTT assay 4 days after compound addition", "procedure,_shortened": "as §1"}, "[5]": {"system": "DT-R cells (pRRE3-luc-transfected v-ki-ras-transformed NIH3T3 cells); signal derived from Ras oncogene products", "assay": "Inhibitory effect against cellular signaling derived from Ras oncogene products: luciferase reporter, dissociation of DT-R from DT-C activity (MAC)", "format": "cell-based, mouse", "conditions": "minimal tested concentration at which luciferase activities of DT-C cells and DT-R cells dissociated", "procedure,_shortened": "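DT-R (pRRE3-luc) and control DT-C (pGV-P) v-Ki-ras NIH3T3 cells were exposed 24 h to compound in 3-fold dilutions in DMEM/10% FCS at 37 °C, then lysed for luciferase luminescence. MAC is the lowest tested concentration at which DT-R and DT-C activities dissociate.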"}, "[6]": {"system": "DT-C cells (pGV-P-transfected v-ki-ras-transformed NIH3T3 cells)", "assay": "Luciferase activity in control DT-C cells (IC50-C): non-specific transcription-inhibitory effect or cytotoxicity", "format": "cell-based, mouse", "conditions": "tested concentration nearest to 50% inhibition in DT-C cells; index of non-specific transcription inhibition or cytotoxicity", "from_the_text": "Test Example 1 Inhibitory Effect Against Cellular Signaling Derived From Ras Oncogene Products\n1) Establishment of Cell Lines Used in Assay\nBased on the reporter plasmid (pGV-P (Toyo Ink, Japan)), in which luciferase gene was ligated to SV40-derived minimal promoter, we constructed a plasmid designated pRRE3-luc by inserting 3 copies of chemically synthesized oligonucleotides (Sequence: CAGGATATGACTCT, derived from mouse NVL-3 (M. A. Reddy et al.(1992)Mol. Endocrinol., 6, 1051)) into upstream of the promoter. v-ki-ras-transformed NIH3T3 cells (DT cells, provided by Dr. Makoto Noda (Kyoto Univ., School of medicine)) were transfected with this plasmid by liposome-mediated transfection and transfected cell lines stably incorporated and maintained each plasmid were obtained. We named pGV-P and pRRE3-transfected cell line as DT-C and DT-R, respectively and used in the assay described below.\n2) Preparation of Samples\ni) All the cell lines were cultured in Dulbecco's Modified Essential Medium (DMEM: 10% Fetal Calf Serum(FCS: Hyclone, USA)) including […] kanamycin (Meiji Seika, Japan) in humidified incubator under condition of 5% CO2 at 37° C.\nii) DT-C and DT-R cells were seeded at 2500 cells/well into flat-bottom 96 well multiplate (Sumitomo bakelite) and incubated for 24 hours.\niii) Test compounds were prepared as 1 mg/ml DMSO solution.\niv) The solution of test compounds were added to the culture. Tested compounds are used at the concentration from […] to 0.51 ng/ml with by 3-fold dilution.\nv) After 24 hours, the culture supernatant was completely aspirated and […] of cell-lysing solution (PGC-50 (Toyo Ink, Japan)) was added before cells were dried up. In order to the cells were lysed completely, multiwell plates were left at room temperature for 10 to 30 min. The plates were wrapped up and stored at −20° C. till the day of measurement.\n3) Measurement of Samples\ni) Melt the samples by putting 96 well multiplate at 37° C. and add 90 μl/well 25 mM Tris (pH 7.5).\nii) Transfer 50 μl of the sample (110 μl) to the 96 well microplate for measurement (Microlite 1 (Dynatech)).\niii) Measure the samples by the luminometer, LUMINOUS CT9000D (Dia-Yatron, Japan). We used Pickagene luminescence kit PGL2000 or LT2.0 (Toyo Ink, Japan) as substrates for luminescence measurement (50 μl/well).\n4) Judgment of the Results\ni) The luciferase activity of DT-C cells and DT-R cells were plotted in the graph where the relative activity and the compound concentration were expressed as Y-axis and X-axis, respectively. We judged by the degree of dissociation between the activities of DT-C cells and DT-R cells as an index.\nii) Concretely, efficacy of the compound was expressed by two values described below.\nb) Among the points of concentration tested, the concentration which is the nearest to 50% inhibition concentration at DT-C cells (IC50-C), was shown as an index of non-specific transcription-inhibitory effect or of cytotoxicity. In case of positive compounds, 50% inhibition concentration above the area of active concentration in DT-C cells was expressed as IC50-C."}}, "data": [{"smiles": "CCCNC(=Nc1nc(C)ncc1CSc1nnc(-c2ccc(N)cc2)o1)NCCC", "note": "[Compound A-144]", "values": [{"measurement": "IC50, HT29", "setting": "human colon cancer HT29", "value": 0.006, "unit": "µg/mL"}, {"measurement": "IC50, Ma44", "setting": "[1]", "value": 0.031, "unit": "µg/mL"}, {"measurement": "IC50, PANC-1", "setting": "[2]", "value": 0.016, "unit": "µg/mL"}, {"measurement": "IC50, RERF-LC-AI", "setting": "[3]", "value": 0.007, "unit": "µg/mL"}, {"measurement": "IC50, A549", "setting": "[4]", "value": 0.019, "unit": "µg/mL"}, {"measurement": "MAC (Minimal Active Concentration)", "setting": "[5]", "value": 0.0137, "unit": "µg/mL"}, {"measurement": "IC50-C", "setting": "[6]", "value": ">10", "unit": "µg/mL"}]}, {"smiles": "CCc1ncc(CSc2nnc(-c3ccc([N+](=O)[O-])cc3)o2)c(N=C(NC)NC)n1", "note": "[Compound A-152]", "values": [{"measurement": "IC50, HT29", "setting": "human colon cancer HT29", "value": 0.082, "unit": "µg/mL"}, {"measurement": "IC50, Ma44", "setting": "[1]", "value": 0.039, "unit": "µg/mL"}, {"measurement": "IC50, PANC-1", "setting": "[2]", "value": 0.013, "unit": "µg/mL"}, {"measurement": "IC50, RERF-LC-AI", "setting": "[3]", "value": 0.006, "unit": "µg/mL"}, {"measurement": "IC50, A549", "setting": "[4]", "value": 0.069, "unit": "µg/mL"}, {"measurement": "MAC (Minimal Active Concentration)", "setting": "[5]", "value": 0.123, "unit": "µg/mL"}, {"measurement": "IC50-C", "setting": "[6]", "value": ">10", "unit": "µg/mL"}]}, {"smiles": "CNC(=Nc1ncncc1CSc1nnc(-c2ccc(N)cc2)o1)NC", "note": "[Compound A-174]", "values": [{"measurement": "IC50, HT29", "setting": "human colon cancer HT29", "value": 0.012, "unit": "µg/mL"}, {"measurement": "IC50, Ma44", "setting": "[1]", "value": 0.076, "unit": "µg/mL"}, {"measurement": "IC50, PANC-1", "setting": "[2]", "value": 0.014, "unit": "µg/mL"}, {"measurement": "IC50, RERF-LC-AI", "setting": "[3]", "value": 0.0067, "unit": "µg/mL"}, {"measurement": "IC50, A549", "setting": "[4]", "value": 0.032, "unit": "µg/mL"}, {"measurement": "MAC (Minimal Active Concentration)", "setting": "[5]", "value": 0.37, "unit": "µg/mL"}, {"measurement": "IC50-C", "setting": "[6]", "value": ">10", "unit": "µg/mL"}]}, {"smiles": "CCNC(=Nc1nc(C)ncc1CSc1nnc(-c2ccc(Cl)cc2Cl)o1)NCC", "note": "[Compound A-80]", "values": [{"measurement": "IC50, HT29", "setting": "human colon cancer HT29", "value": 0.024, "unit": "µg/mL"}, {"measurement": "IC50, Ma44", "setting": "[1]", "value": 0.062, "unit": "µg/mL"}, {"measurement": "IC50, PANC-1", "setting": "[2]", "value": 0.05, "unit": "µg/mL"}, {"measurement": "IC50, RERF-LC-AI", "setting": "[3]", "value": 0.018, "unit": "µg/mL"}, {"measurement": "IC50, A549", "setting": "[4]", "value": 0.1, "unit": "µg/mL"}, {"measurement": "MAC (Minimal Active Concentration)", "setting": "[5]", "value": 0.370, "unit": "µg/mL"}, {"measurement": "IC50-C", "setting": "[6]", "value": 3.33, "unit": "µg/mL"}]}, {"smiles": "CCCNC(=Nc1nc(CC)ncc1CSc1nnc(-c2ccc([N+](=O)[O-])cc2)o1)NCCC", "note": "[Compound A-138]", "values": [{"measurement": "IC50, HT29", "setting": "human colon cancer HT29", "value": 0.03, "unit": "µg/mL"}, {"measurement": "IC50, Ma44", "setting": "[1]", "value": 0.04, "unit": "µg/mL"}, {"measurement": "IC50, PANC-1", "setting": "[2]", "value": 0.026, "unit": "µg/mL"}, {"measurement": "IC50, RERF-LC-AI", "setting": "[3]", "value": 0.043, "unit": "µg/mL"}, {"measurement": "IC50, A549", "setting": "[4]", "value": 0.046, "unit": "µg/mL"}, {"measurement": "MAC (Minimal Active Concentration)", "setting": "[5]", "value": 0.0412, "unit": "µg/mL"}, {"measurement": "IC50-C", "setting": "[6]", "value": 1.11, "unit": "µg/mL"}]}, {"smiles": "CCNC(=Nc1nc(C)ncc1CSc1nnc(-c2ccc(N)cc2)o1)NC", "note": "[Compound A-168]", "values": [{"measurement": "IC50, HT29", "setting": "human colon cancer HT29", "value": 0.0055, "unit": "µg/mL"}, {"measurement": "IC50, Ma44", "setting": "[1]", "value": 0.017, "unit": "µg/mL"}, {"measurement": "IC50, PANC-1", "setting": "[2]", "value": 0.0059, "unit": "µg/mL"}, {"measurement": "IC50, RERF-LC-AI", "setting": "[3]", "value": 0.0028, "unit": "µg/mL"}, {"measurement": "IC50, A549", "setting": "[4]", "value": 0.012, "unit": "µg/mL"}, {"measurement": "MAC (Minimal Active Concentration)", "setting": "[5]", "value": 0.0412, "unit": "µg/mL"}, {"measurement": "IC50-C", "setting": "[6]", "value": ">10", "unit": "µg/mL"}]}, {"smiles": "CNC(=Nc1nc(C)ncc1CSc1nnc(-c2ccc([N+](=O)[O-])cc2)o1)NC(C)C", "note": "[Compound A-170]", "values": [{"measurement": "IC50, HT29", "setting": "human colon cancer HT29", "value": 0.0077, "unit": "µg/mL"}, {"measurement": "IC50, Ma44", "setting": "[1]", "value": 0.0054, "unit": "µg/mL"}, {"measurement": "IC50, PANC-1", "setting": "[2]", "value": 0.0065, "unit": "µg/mL"}, {"measurement": "IC50, RERF-LC-AI", "setting": "[3]", "value": 0.0027, "unit": "µg/mL"}, {"measurement": "IC50, A549", "setting": "[4]", "value": 0.014, "unit": "µg/mL"}, {"measurement": "MAC (Minimal Active Concentration)", "setting": "[5]", "value": "<0.000508", "unit": "µg/mL"}, {"measurement": "IC50-C", "setting": "[6]", "value": ">10", "unit": "µg/mL"}]}, {"smiles": "CCCCNC(=Nc1nc(C)ncc1CSc1nnc(-c2ccc([N+](=O)[O-])cc2)o1)NCCCC", "note": "[Compound A-128]", "values": [{"measurement": "IC50, HT29", "setting": "human colon cancer HT29", "value": 0.042, "unit": "µg/mL"}, {"measurement": "IC50, Ma44", "setting": "[1]", "value": 0.044, "unit": "µg/mL"}, {"measurement": "IC50, PANC-1", "setting": "[2]", "value": 0.026, "unit": "µg/mL"}, {"measurement": "IC50, RERF-LC-AI", "setting": "[3]", "value": 0.036, "unit": "µg/mL"}, {"measurement": "IC50, A549", "setting": "[4]", "value": 0.047, "unit": "µg/mL"}, {"measurement": "MAC (Minimal Active Concentration)", "setting": "[5]", "value": 0.0412, "unit": "µg/mL"}, {"measurement": "IC50-C", "setting": "[6]", "value": 3.33, "unit": "µg/mL"}]}]}
